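How tested: cells in 96-well plates exposed to compound for 48 hours at five concentrations. Abbreviation: GI50, concentration required for 50% inhibition of growth.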 Active and inactive are the calls of the source. Cut-off read from the data, not from the text of the source: active = GI50 up to about 1.1 µM and inactive = higher. Where only a bound is given, the exact number is not on record here.

From ChEMBL document CHEMBL1201862, “PubChem BioAssay data set” (2004) come the findings set out here.

Some test systems named below: SW-620; U-251; HOP-92; SK-MEL-5; KM12; SN12C; UACC-62; Hs-578T; SR; NCI-H23; HL-60; TK-10; UO-31; IGROV-1; SF-295; SNB-19; A549; HT-29; HCT-15; NCI/ADR-RES.
What all share (test): growth of human tumour cells (NCI), 48 h

On to `CC(=O)NC1(NC(C)=O)C2CC(C1Cc1ccccc1)C(C)(C)C2C` (stereo unspecified), for which the GI50 in the assay on SW-620, with U-251, in the assay with HOP-92, with SK-MEL-5, with KM12 and in the assay on SN12C was > 100 µM (inactive) in each case. The GI50 with UACC-62, in the assay on Hs-578T, in the assay with SR, with NCI-H23, with HL-60 and with TK-10 was > 100 µM (inactive) in each case. For the same molecule, the GI50 in the assay on UO-31, in the assay on IGROV-1, with SF-295, with SNB-19, in the assay with A549 and with HT-29 was > 100 µM (inactive) each time.

For the molecule `CCOc1ccc(NCC(=O)N2CC(=O)Nc3ccccc32)cc1`, the GI50 with SW-620, in the assay with U-251, in the assay with HOP-92, with SK-MEL-5, with KM12 and in the assay on SN12C was > 100 µM (inactive) throughout. For the same molecule, the GI50 was > 100 µM (inactive) with UACC-62; > 100 µM (inactive) with SR; above 100 µM in the assay on HCT-15; > 100 µM (inactive) in the assay with NCI-H23; > 100 µM (inactive) in the assay on HL-60; > 100 µM (inactive) in the assay on TK-10. The GI50 in the assay with UO-31, with SF-295, in the assay with SNB-19, in the assay with A549 and in the assay on HT-29 was > 100 µM (inactive) each time.

On to `O=C(/C=C/c1ccc(O)c(O)c1)NCCc1ccc(-c2ccccc2)cc1`, for which the GI50 with NCI/ADR-RES is 64.7 µM (inactive); in the assay with SW-620, > 100 µM (inactive); in the assay on SK-MEL-5, 45.8 µM (inactive); with KM12, 30.8 µM (inactive); in the assay on Hs-578T, > 100 µM (inactive); with HCT-15 it was above 100 µM. The GI50 in the assay with NCI-H23 was 68.4 µM (inactive); in the assay with HL-60 it was 28.3 µM (inactive); in the assay with TK-10 it was 19.1 µM (inactive); with UO-31, 94.8 µM (inactive); with SF-295 it was 40.8 µM (inactive); with SNB-19 it was > 100 µM (inactive). Further, the GI50 was > 100 µM (inactive) in the assay with A549 and 63.5 µM (inactive) in the assay on HT-29.

Consider `O=C1c2ccccc2C(=O)N1Cc1ccccc1-c1c2nc(c(-c3ccccc3CN3C(=O)c4ccccc4C3=O)c3ccc([nH]3)c(-c3ccccc3CN3C(=O)c4ccccc4C3=O)c3nc(c(-c4ccccc4CN4C(=O)c5ccccc5C4=O)c4ccc1[nH]4)C=C3)C=C2`, for which the GI50 with SW-620 was > 100 µM (inactive); in the assay on U-251, > 100 µM (inactive); in the assay on HOP-92 it was > 100 µM (inactive); in the assay on SK-MEL-5, 52.7 µM (inactive); in the assay on KM12 it was > 100 µM (inactive); in the assay on SN12C it was > 100 µM (inactive). For the same molecule, the GI50 with UACC-62 was > 100 µM (inactive); in the assay with SR, > 100 µM (inactive); in the assay on HCT-15, above 100 µM; with NCI-H23, > 100 µM (inactive); with HL-60, > 100 µM (inactive); in the assay with TK-10, > 100 µM (inactive). The GI50 with UO-31 is > 100 µM (inactive); in the assay with IGROV-1, > 100 µM (inactive); in the assay with SF-295, 72.1 µM (inactive); in the assay with A549, > 100 µM (inactive); with HT-29 it was > 100 µM (inactive).

With `CC1(C)C=[N+]([O-])C(C)(C)N1O`, the GI50 in the assay with NCI/ADR-RES, in the assay with SW-620, in the assay with U-251, in the assay with HOP-92, with KM12 and in the assay on SN12C was > 10 µM (inactive) throughout. In addition, the GI50 with SR was > 10 µM (inactive); in the assay on HCT-15, above 10 µM; with NCI-H23 it was > 10 µM (inactive); in the assay with HL-60, > 10 µM (inactive); in the assay on TK-10 it was > 10 µM (inactive); in the assay with UO-31, > 10 µM (inactive). Further, the GI50 in the assay on SF-295, in the assay on SNB-19, with A549 and in the assay on HT-29 was > 10 µM (inactive) in each case.

For the molecule `COc1cc(/C=c2\sc3n(c2=O)C(c2ccc(Cl)cc2)C2=C(CCCC2C)N=3)cc(OC)c1OC` (stereo unspecified), the GI50 is > 100 µM (inactive) in the assay on SW-620; > 100 µM (inactive) in the assay on U-251; > 100 µM (inactive) in the assay with HOP-92; 83 µM (inactive) in the assay with SK-MEL-5; > 100 µM (inactive) in the assay with KM12; > 100 µM (inactive) in the assay with SN12C. For the same molecule, the GI50 in the assay on UACC-62 is > 100 µM (inactive); in the assay with Hs-578T, > 100 µM (inactive); in the assay with SR, > 100 µM (inactive); with HCT-15, above 100 µM; in the assay with HL-60, > 100 µM (inactive); in the assay on TK-10 it was > 100 µM (inactive). Moreover, the GI50 with UO-31, in the assay on IGROV-1, in the assay with SNB-19, in the assay with A549 and in the assay with HT-29 was > 100 µM (inactive) throughout.

With `COc1ccc(C2c3c(n(C)c(=O)n(C)c3=O)OC(N(C)C)(N(C)C)C2(F)F)cc1` (stereo unspecified), the GI50 with NCI/ADR-RES, in the assay with SW-620, in the assay on U-251, with HOP-92, with SK-MEL-5 and with KM12 was > 100 µM (inactive) throughout. Also, the GI50 is > 100 µM (inactive) in the assay on UACC-62; above 100 µM in the assay with HCT-15; > 100 µM (inactive) in the assay with NCI-H23; > 100 µM (inactive) in the assay with TK-10; > 100 µM (inactive) with UO-31; > 100 µM (inactive) in the assay with SF-295. The GI50 with SNB-19 and with A549 was > 100 µM (inactive) in each case.

For the molecule `Cc1cc(NS(=O)(=O)c2ccc(NC(=O)COC(=O)c3cccc4c(=O)c5ccccc5[nH]c34)cc2)no1`, the GI50 in the assay on SW-620, with U-251, in the assay on HOP-92, in the assay on SK-MEL-5, with KM12 and with SN12C was > 100 µM (inactive) each time. Further, the GI50 is > 100 µM (inactive) in the assay on UACC-62; > 100 µM (inactive) in the assay on SR; above 100 µM in the assay with HCT-15; > 100 µM (inactive) in the assay on NCI-H23; > 100 µM (inactive) with HL-60; > 100 µM (inactive) in the assay on TK-10. The GI50 in the assay with UO-31, in the assay on IGROV-1, in the assay on SF-295, with SNB-19, in the assay on A549 and in the assay on HT-29 was > 100 µM (inactive) in each case.

As for `Cc1ccc(S(=O)(=O)N2CCc3cc(O)c([N+](=O)[O-])cc32)cc1`, the GI50 in the assay on NCI/ADR-RES, in the assay with SW-620, in the assay with U-251, in the assay with SK-MEL-5, with KM12 and in the assay on SN12C was > 100 µM (inactive) in each case. In addition, the GI50 in the assay with UACC-62 was > 100 µM (inactive); in the assay with Hs-578T, > 100 µM (inactive); in the assay on HCT-15 it was above 100 µM; in the assay with NCI-H23, > 100 µM (inactive); in the assay on HL-60, > 100 µM (inactive); in the assay on TK-10 it was > 100 µM (inactive). The GI50 in the assay on UO-31, with IGROV-1, in the assay with SF-295, in the assay on SNB-19 and in the assay on A549 was > 100 µM (inactive) in each case.

In the case of `O=C1NC2OC(C(O)CO)C(O)C2O1` (stereo unspecified), the GI50 in the assay on SW-620, in the assay on U-251, in the assay with HOP-92, in the assay with SK-MEL-5, in the assay on KM12 and with SN12C was > 100 µM (inactive) throughout. The GI50 in the assay on UACC-62 is > 100 µM (inactive); in the assay with SR it was > 100 µM (inactive); in the assay on HCT-15, above 100 µM; in the assay on NCI-H23, > 100 µM (inactive); in the assay on HL-60, > 100 µM (inactive); with TK-10, > 100 µM (inactive). In addition, the GI50 with UO-31, in the assay with IGROV-1, in the assay on SF-295, with SNB-19, in the assay on A549 and with HT-29 was > 100 µM (inactive) in each case.

For `O/N=C1/CC2(N3CCOCC3)C3CC/C(=N\O)C2CC1(Cc1ccccc1)C3` (stereo unspecified), the GI50 was > 100 µM (inactive) with NCI/ADR-RES; > 100 µM (inactive) with SW-620; > 100 µM (inactive) with U-251; 44.4 µM (inactive) in the assay with SK-MEL-5; > 100 µM (inactive) with KM12; > 100 µM (inactive) in the assay with SN12C. For the same molecule, the GI50 was > 100 µM (inactive) in the assay with UACC-62; > 100 µM (inactive) with SR; above 100 µM in the assay with HCT-15; > 100 µM (inactive) in the assay with NCI-H23; 67 µM (inactive) with HL-60; > 100 µM (inactive) in the assay on UO-31. Also, the GI50 is > 100 µM (inactive) with IGROV-1; > 100 µM (inactive) in the assay on SF-295; > 100 µM (inactive) in the assay on SNB-19; > 100 µM (inactive) in the assay with A549; 95.9 µM (inactive) with HT-29.

In the case of `COc1cc2c(c(OC)c1OC)-c1ccc(SC)c(=O)cc1[C@@H](NCc1ccc(C#N)cc1)CC2`, the GI50 was 0.00366 µM (active) in the assay on SW-620; 0.0031 µM (active) in the assay with U-251; 0.0307 µM (active) in the assay with HOP-92; 0.00365 µM (active) in the assay on SK-MEL-5; 0.00469 µM (active) in the assay with KM12; 0.00449 µM (active) in the assay on SN12C. Also, the GI50 is 0.00264 µM (active) with UACC-62; 0.002 µM (active) with SR; 0.00472 µM in the assay on HCT-15; 0.00274 µM (active) in the assay on NCI-H23; 0.00301 µM (active) in the assay with HL-60; 0.00811 µM (active) in the assay with TK-10. Also, the GI50 was 0.0764 µM (active) with UO-31; 0.00412 µM (active) with IGROV-1; 0.00369 µM (active) with SF-295; 0.0488 µM (active) in the assay with SNB-19; 0.00411 µM (active) in the assay on A549; 0.00239 µM (active) in the assay on HT-29.
